Experimental findings from patent US8772323B2, “Benzoxazole- and tetrahydrobenzoxazole-substituted pyridazinones as GPR119 agonists” (Boehringer Ingelheim International GmbH, priority 2010, dated 2014) are described below.

The target in this assay is human GPR119 (Homo sapiens (Human), UniProt Q8TDV5). The experiment in a line: AlphaScreen cAMP assay in Min-6/hGPR119 cells (GPR119 activation, intracellular cAMP). The format is cell-based. Particulars: MIN6 cells stably transfected with human GPR119; 45 minutes' incubation at RT; AlphaScreen cAMP Assay Kit. How it is done:
The compounds of formula I according to the invention are GPR119 agonists. The effect of the compounds on the activation of GPR119 and on the stimulation of intracellular cAMP concentration is determined using the AlphaScreen cAMP Assay Kit (Cat. No. #6760625R) made by PerkinElmer.
MIN6 cells [Miyazaki J et al. Endocrinology. 1990 July; 127(1):126-32] were stably transfected with an expression vector for human GPR119 cDNA (Acc. No. NP_848566). Min-6/hGPR119 cells are cultured in DMEM, 10% FBS, 50 μM β-mercaptoethanol, 0.3 mg/mL Geniticin, 2 mM GlutaMAX at 37° C. 5% CO2. For the assay, the cells are placed in Optiplates (white, 384-well, 160W-barcoded, TC, sterile with lid, Cat. No. #6007688 (Perkin Elmer); 10000 cells/well; 50 μl). The plates covered with lids are then incubated for 24 hours at 37° C./5% CO2.
After the medium has been sucked out of the wells completely, 10 μl of the test compound are added, the compounds are diluted beforehand with stimulating buffer (140 mM NaCl, 3.6 mM KCl, 0.5 mM NaH2PO4, 0.5 mM MgSO4, 1.5 mM CaCl2, 10 mM Hepes, 5 mM NaHCO3; pH 7.4. 0.5 mM IBMX and 0.1% BSA, the final DMSO concentration is 1%). After 45 minutes' incubation at RT, the cAMP concentrations are determined using the AlphaScreen cAMP Assay Kit (Cat. No. #6760625R from PerkinElmer).

Structures can show the parent of a compound that is named as a salt.

human GPR119, sequence (Q8TDV5 whole entry): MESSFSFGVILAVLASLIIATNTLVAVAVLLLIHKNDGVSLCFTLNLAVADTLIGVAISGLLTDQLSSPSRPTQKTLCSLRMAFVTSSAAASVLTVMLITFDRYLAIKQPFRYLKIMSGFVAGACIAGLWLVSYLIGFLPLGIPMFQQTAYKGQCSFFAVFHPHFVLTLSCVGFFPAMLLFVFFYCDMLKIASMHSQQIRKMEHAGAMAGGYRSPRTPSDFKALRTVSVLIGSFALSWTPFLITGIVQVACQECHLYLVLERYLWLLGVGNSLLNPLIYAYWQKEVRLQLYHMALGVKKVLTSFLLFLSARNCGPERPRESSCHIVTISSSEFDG

Consider `CC1CC(=O)NN=C1c1ccc2nc(-c3ccc(OCc4ccccc4)cc3)oc2c1` (centres unmarked) [Example 36, 6-[2-(4-benzyloxy-phenyl)-benzoxazol-6-yl]-5-methyl-4,5-dihydro-2H-pyridazin-3-one], for which it took 58 nM to reach a half-maximal effect (EC50).

In the case of `CCC1CC(=O)NN=C1c1ccc2nc(-c3ccc(O)cc3)oc2c1` (centres unmarked) [Example 37, 5-ethyl-6-[2-(4-hydroxy-phenyl)-benzoxazol-6-yl]-4,5-dihydro-2H-pyridazin-3-one], it took 636 nM to reach a half-maximal effect (EC50).

Take `CC1CC(=O)NN=C1c1ccc2nc(-c3cccc(O)c3)oc2c1` (centres unmarked) [Example 38, 6-[2-(3-hydroxy-phenyl)-benzoxazol-6-yl]-5-methyl-4,5-dihydro-2H-pyridazin-3-one]: the response was half-maximal at 890 nM (EC50).

As to `CCC1CC(=O)NN=C1c1ccc2nc(-c3cccc(O)c3)oc2c1` (centres unmarked) [Example 39, 6-[2-(3-hydroxy-phenyl)-benzoxazol-6-yl]-5-ethyl-4,5-dihydro-2H-pyridazin-3-one], a half-maximal effect (EC50) was put at 329 nM.

`CCC1CC(=O)NN=C1c1ccc2nc(-c3ccc(OCc4ncccn4)cc3)oc2c1` (centres unmarked) [Example 40, 5-ethyl-6-{2-[4-(pyrimidin-2-ylmethoxy)-phenyl]-benzoxazol-6-yl}-4,5-dihydro-2H-pyridazin-3-one]: it took 275 nM to reach a half-maximal effect (EC50).

In the case of `CCC1CC(=O)NN=C1c1ccc2nc(-c3ccc(OCC(=O)N(C)C)cc3)oc2c1` (centres unmarked) [Example 41, 2-{4-[6-(4-ethyl-6-oxo-1,4,5,6-tetrahydro-pyridazin-3-yl)-benzoxazol-2-yl]-phenoxy}-N,N-dimethyl-acetamide], a half-maximal response (EC50) required 1520 nM.

For `CCC1CC(=O)NN=C1c1ccc2nc(-c3ccc(OCc4cncn4C)cc3)oc2c1` (centres unmarked) [Example 42, 5-ethyl-6-{2-[4-(3-methyl-3H-imidazol-4-ylmethoxy)-phenyl]-benzoxazol-6-yl}-4,5-dihydro-2H-pyridazin-3-one], it took 4180 nM to reach a half-maximal effect (EC50).

For `CCC1CC(=O)NN=C1c1ccc2nc(-c3ccc(OCC(=O)NC)cc3)oc2c1` (centres unmarked) [Example 43, 2-{4-[6-(4-ethyl-6-oxo-1,4,5,6-tetrahydro-pyridazin-3-yl)-benzoxazol-2-yl]-phenoxy}-N-methyl-acetamide], the response was half-maximal at 1080 nM (EC50).

`CCC1CC(=O)NN=C1c1ccc2nc(-c3ccc(OCCN4CCN(C)CC4)cc3)oc2c1` (centres unmarked) [Example 44, 5-ethyl-6-(2-{4-[2-(4-methyl-piperazin-1-yl)-ethoxy]-phenyl}-benzoxazol-6-yl)-4,5-dihydro-2H-pyridazin-3-one dihydrochloride]: the response was half-maximal at 1090 nM (EC50).

With `CCC1CC(=O)NN=C1c1ccc2nc(-c3cccc(OCc4cccnc4)c3)oc2c1` (centres unmarked) [Example 45, 5-ethyl-6-{2-[3-(pyridin-3-ylmethoxy)-phenyl]-benzoxazol-6-yl}-4,5-dihydro-2H-pyridazin-3-one], it took 807 nM to reach a half-maximal effect (EC50).

With `CCC1CC(=O)NN=C1c1ccc2nc(-c3ccc(OCc4ccncc4)cc3)oc2c1` (centres unmarked) [Example 46, 5-ethyl-6-{2-[4-(pyridin-4-ylmethoxy)-phenyl]-benzoxazol-6-yl}-4,5-dihydro-2H-pyridazin-3-one], a half-maximal response (EC50) required 345 nM.

`CCC1CC(=O)NN=C1c1ccc2nc(-c3ccc(OCc4ccccn4)cc3)oc2c1` (centres unmarked) [Example 47, 5-ethyl-6-{2-[4-(pyridin-2-ylmethoxy)-phenyl]-benzoxazol-6-yl}-4,5-dihydro-2H-pyridazin-3-one]: it took 226 nM to reach a half-maximal effect (EC50).

As for `CCC1CC(=O)NN=C1c1ccc2nc(-c3ccc(OCc4ccsc4)cc3)oc2c1` (centres unmarked) [Example 48, 5-ethyl-6-{2-[4-(thiophen-3-ylmethoxy)-phenyl]-benzoxazol-6-yl}-4,5-dihydro-2H-pyridazin-3-one], the EC50 (in general, the concentration giving half of the maximal effect) was 348 nM.

In turn, `CCC1CC(=O)NN=C1c1ccc2nc(-c3ccc(OCCN4CCCCC4)cc3)oc2c1` (centres unmarked) [Example 49, 5-ethyl-6-{2-[4-(2-piperidin-1-yl-ethoxy)-phenyl]-benzoxazol-6-yl}-4,5-dihydro-2H-pyridazin-3-one] showed a 50% effective concentration (EC50) of 114 nM.
